This passage reports plasma protein binding and fibrin signal results from article PMC11967380, “Rapid Determination of Xa Inhibitor Activity in Blood Using a Microfluidic Device that Measures Platelet Deposition and Fibrin Generation Under Flow” (TH Open: Companion Journal to Thrombosis and Haemostasis, 2025).

Details of series [1]: method as in PMID 31089975, PMID 23999929. Particulars: cited from earlier work.
The subject of series [2] is whole blood clotting on collagen/tissue factor (platelet and fibrin deposition). The series can be described thus: DOAC reversal and detection in blood of DOAC-treated patients (microfluidic platelet and fibrin signal). The format is cell-based, human. Particulars: 5,000 nM matching DOAC added ex vivo to patient blood, all subjects. An excerpt:
Platelets were labeled in whole blood by the addition of an AlexaFluor 488-conjugated anti-CD61 molecule (Bio-Rad Laboratories) and fibrin was quantified via the addition of AlexaFluor 594-conjugated fibrinogen (Life Technologies Co.), as previously described. Chips were mounted on a Lumascope 620 (Etaluma Inc.) LED epifluorescence microscope with a 2.5× objective (Meiji Techno). Each chip was primed with 1% bovine serum albumin (BSA) in HEPES-buffered saline (HBS) to passivate the surfaces ( Fig. 1A ). A volume of 60 μL of whole blood was added to each inlet well. A vacuum pressure of 140 mbar was applied to the outlet to yield an initial wall shear rate of 200 s ^−1 . Fluorescence images were captured at 10 s intervals for green and red LED channels to obtain kinetic data for platelet and fibrin deposition on the collagen/TF zone for up to 25 min. Images were analyzed with ImageJ to calculate the average pixel brightness of an inner 200 μm by 200 μm region within each clot.
For DOAC-treated patients on either rivaroxaban or apixaban, blood samples were obtained and analyzed, using the microfluidic device to measure platelets and fibrin deposition under flow as described above. […] For subjects 1 through 19, fluorescence data were collected for 15 minutes. […]
Statistical significance was calculated for paired t -tests, using GraphPad Prism 9 (GraphPad Software). […]

As for `COc1ccc(-n2nc(C(N)=O)c3c2C(=O)N(c2ccc(N4CCCCC4=O)cc2)CC3)cc1` [apixaban], the plasma protein binding result in series [1] is given as “high”. The fibrin signal result in series [2] is reported as “nearly fully suppressed”.

Consider `O=C(NC[C@H]1CN(c2ccc(N3CCOCC3=O)cc2)C(=O)O1)c1ccc(Cl)s1` [rivaroxaban], for which, in series [1], the plasma protein binding entry is on record as “high”. For the same molecule, the fibrin signal result in series [2] is given as “nearly fully suppressed”.
